# Test results from patent US10212936B2, “Molecules having pesticidal utility, and intermediates, compositions, and processes, related thereto” (priority 2014, dated 2019).
# Key:
# Format in all cases: in vivo
# [1] = tested on: Beet Armyworm (Spodoptera exigua, LAPHEG); assay: Bioassay on Beet Armyworm (BAW), 128-well diet tray assay; conditions: 168 h, 50 μg/cm^2 on artificial diet, second instar larvae, five to seven days, 25° C., read-out: BAW % Control (or Mortality) rating
# How it was run: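 Second instar larvae, one to five per well, placed on artificial diet treated with 50 μg/cm^2 compound (in 90:10 acetone-water) and dried; eight wells per compound. Held at 25° C, 14:10 light-dark, five to seven days. Percent mortality recorded per well and averaged.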
# [2] = tested on: Cabbage Looper (Trichoplusia ni, TRIPNI); assay: Bioassay on Cabbage Looper (CL), 128-well diet tray assay; conditions: 168 h, 50 μg/cm^2 on artificial diet, second instar larvae, five to seven days, 25° C., read-out: CL % Control (or Mortality) rating
# How it was run: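 Diet-tray test with one to five second-instar larvae per well on artificial diet treated with 50 μg/cm^2 compound (in 90:10 acetone-water), dried, eight wells per molecule. Held 25 °C, 14:10 light-dark for five to seven days; percent mortality averaged over the eight wells.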
# [3] = tested on: Green Peach Aphid (Myzus persicae, MYZUPE); assay: Bioassay on Green Peach Aphid (GPA), foliar spray on cabbage seedlings; conditions: 72 h, 200 ppm foliar spray on cabbage seedlings, three days, Abbott corrected % control, read-out: GPA % Control (or Mortality) rating
# Method: Example B: Bioassays on Green Peach Aphid (Myzus persicae, MYZUPE) (“GPA”)
# Certain molecules disclosed in this document were tested against GPA using procedures described in the following example. In the reporting of the results, the “GPA Rating Table” was used (See Table Section).
# Cabbage seedlings grown in 3-inch pots, with 2-3 small (3-5 cm) true leaves, were used as test substrate. The seedlings were infested with 20-50 GPA (wingless adult and nymph stages) one day prior to chemical application. Four pots with individual seedlings were used for each treatment. Test molecules (2 mg) were dissolved in 2 mL of acetone/methanol (1:1) solvent, forming stock solutions of 1000 ppm test molecule. The stock solutions were diluted 5× with 0.025% Tween 20 in water to obtain the solution at 200 ppm test molecule. A hand-held aspirator-type sprayer was used for spraying a solution to both sides of […] leaves until runoff. Reference plants (solvent check) were sprayed with the diluent only containing 20% by volume of acetone/methanol (1:1) solvent. Treated plants were held in a holding room for three days at approximately 25° C. and ambient relative humidity (RH) prior to grading. Evaluation was conducted by counting the number of live aphids per plant under a microscope. Percent Control was measured by using Abbott's correction formula (W. S. Abbott, “A Method of Computing the Effectiveness of an Insecticide” J. Econ. Entomol. 18 (1925), pp. 265-267) as follows. Corrected % Control=100*(X−Y)/X • where • X=No. of live aphids on solvent check plants and • Y=No. of live aphids on treated plants
# The results are indicated in the table entitled “Table ABC: Biological Results” (See Table Section).
# [4] = tested on: Yellow Fever Mosquito (Aedes aegypti, AEDSAE); assay: Bioassay on Yellow Fever Mosquito (YFM) larvae, 96-well plate; conditions: about 1 day-old larvae, 4000 ppm DMSO master plate diluted, graded after 3 days
# How it was run: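 Compounds from 4000 ppm DMSO master stocks, diluted in 90:10 water:acetone, dispensed into wells and infested with about 1-day-old Aedes aegypti larvae in liver-powder water. Six replicate plates, covered and held at room temperature for 3 days, then each well scored for mortality.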
Structure (SMILES),mortality at 50 µg/cm2 [1],mortality at 50 µg/cm2 [2],mortality at 200 ppm [3],YFM % Control (or Mortality) rating [4]
"Cc1cc(Cl)ccc1-n1nccc1NC(=O)Nc1ccc(-c2ncn(-c3ccc(OC(F)(F)F)cc3)n2)cc1 [F3, 1-(1-(4-Chloro-2-methylphenyl)-1H-pyrazol-5-yl)-3-(4-(1-(4-(trifluoromethoxy)phenyl)-1H-1,2,4-triazol-3-yl)phenyl)urea]",50 to 100%,50 to 100%,0%,A (80-100)
"O=C(Nc1ccc(-c2ncn(-c3ccc(OC(F)(F)F)cc3)n2)cc1)Nc1ccnn1-c1c(Cl)cccc1Cl [F4, 1-(1-(2,6-Dichlorophenyl)-1H-pyrazol-5-yl)-3-(4-(1-(4-(trifluoromethoxy)phenyl)-1H-1,2,4-triazol-3-yl)phenyl)urea]",50 to 100%,50 to 100%,0 to 80%,A (80-100)
"Cc1ccc(F)cc1-n1nccc1NC(=O)Nc1ccc(-c2ncn(-c3ccc(OC(F)(F)F)cc3)n2)cc1 [F5, 1-(1-(5-Fluoro-2-methylphenyl)-1H-pyrazol-5-yl)-3-(4-(1-(4-(trifluoromethoxy)phenyl)-1H-1,2,4-triazol-3-yl)phenyl)urea]",50 to 100%,50 to 100%,0%,A (80-100)
"CCc1ccccc1-n1nccc1NC(=O)Nc1ccc(-c2ncn(-c3ccc(OC(F)(F)F)cc3)n2)cc1 [F6, 1-(1-(2-Ethylphenyl)-1H-pyrazol-5-yl)-3-(4-(1-(4-(trifluoromethoxy)phenyl)-1H-1,2,4-triazol-3-yl)phenyl)urea]",50 to 100%,50 to 100%,0%,A (80-100)
"Cc1ccc(C)c(-n2nccc2NC(=O)Nc2ccc(-c3ncn(-c4ccc(OC(F)(F)F)cc4)n3)cc2)c1 [F7, 1-(1-(2,5-Dimethylphenyl)-1H-pyrazol-5-yl)-3-(4-(1-(4-(trifluoromethoxy)phenyl)-1H-1,2,4-triazol-3-yl)phenyl)urea]",50 to 100%,50 to 100%,0 to 80%,A (80-100)
"Cc1ccc(-n2nccc2NC(=O)Nc2ccc(-c3ncn(-c4ccc(OC(F)(F)F)cc4)n3)cc2)c(C)c1 [F9, 1-(1-(2,4-Dimethylphenyl)-1H-pyrazol-5-yl)-3-(4-(1-(4-(trifluoromethoxy)phenyl)-1H-1,2,4-triazol-3-yl)phenyl)urea]",50 to 100%,50 to 100%,0 to 80%,A (80-100)
"Cc1cc(C)c(-n2nccc2NC(=O)Nc2ccc(-c3ncn(-c4ccc(OC(F)(F)F)cc4)n3)cc2)c(C)c1 [F11, 1-(1-Mesityl-1H-pyrazol-5-yl)-3-(4-(1-(4-(trifluoromethoxy)phenyl)-1H-1,2,4-triazol-3-yl)phenyl)urea]",50 to 100%,50 to 100%,0%,A (80-100)
"O=C(Nc1ccc(-c2ncn(-c3ccc(OC(F)(F)F)cc3)n2)cc1)Nc1ccnn1-c1cc(Cl)ccc1Cl [F12, 1-(1-(2,5-Dichlorophenyl)-1H-pyrazol-5-yl)-3-(4-(1-(4-(trifluoromethoxy)phenyl)-1H-1,2,4-triazol-3-yl)phenyl)urea]",50 to 100%,50 to 100%,0 to 80%,A (80-100)
"COc1ccccc1-n1nccc1NC(=O)Nc1ccc(-c2ncn(-c3ccc(OC(F)(F)F)cc3)n2)cc1 [F13, 1-(1-(2-Methoxyphenyl)-1H-pyrazol-5-yl)-3-(4-(1-(4-(trifluoromethoxy)phenyl)-1H-1,2,4-triazol-3-yl)phenyl)urea]",50 to 100%,50 to 100%,0%,A (80-100)
"O=C(Nc1ccc(-c2ncn(-c3ccc(OC(F)(F)C(F)(F)F)cc3)n2)cc1)Nc1ccnn1-c1c(Cl)cccc1Cl [F14, 1-(1-(2,6-Dichlorophenyl)-1H-pyrazol-5-yl)-3-(4-(1-(4-(perfluoroethoxy)phenyl)-1H-1,2,4-triazol-3-yl)phenyl)urea]",50 to 100%,50 to 100%,0 to 80%,A (80-100)
"Cc1ccc(-n2nccc2NC(=O)Nc2ccc(-c3ncn(-c4ccc(OC(F)(F)C(F)(F)F)cc4)n3)cc2)c(C)c1 [F15, 1-(1-(2,4-Dimethylphenyl)-1H-pyrazol-5-yl)-3-(4-(1-(4-(perfluoroethoxy)phenyl)-1H-1,2,4-triazol-3-yl)phenyl)urea]",50 to 100%,50 to 100%,0 to 80%,A (80-100)
"Cc1ccc(F)cc1-n1nccc1NC(=O)Nc1ccc(-c2ncn(-c3ccc(OC(F)(F)C(F)(F)F)cc3)n2)cc1 [F16, 1-(1-(5-Fluoro-2-methylphenyl)-1H-pyrazol-5-yl)-3-(4-(1-(4-(perfluoroethoxy)phenyl)-1H-1,2,4-triazol-3-yl)phenyl)urea]",50 to 100%,50 to 100%,0%,A (80-100)
"Cc1ccc(C)c(-n2nccc2NC(=O)Nc2ccc(-c3ncn(-c4ccc(OC(F)(F)C(F)(F)F)cc4)n3)cc2)c1 [F17, 1-(1-(2,5-Dimethylphenyl)-1H-pyrazol-5-yl)-3-(4-(1-(4-(perfluoroethoxy)phenyl)-1H-1,2,4-triazol-3-yl)phenyl)urea]",50 to 100%,50 to 100%,0 to 80%,A (80-100)
"Cc1cc(C)c(-n2nccc2NC(=O)Nc2ccc(-c3ncn(-c4ccc(OC(F)(F)C(F)(F)F)cc4)n3)cc2)c(C)c1 [F18, 1-(1-Mesityl-1H-pyrazol-5-yl)-3-(4-(1-(4-(perfluoroethoxy)phenyl)-1H-1,2,4-triazol-3-yl)phenyl)urea]",50 to 100%,50 to 100%,0 to 80%,A (80-100)
"COc1ccccc1-n1nccc1NC(=O)Nc1ccc(-c2ncn(-c3ccc(OC(F)(F)C(F)(F)F)cc3)n2)cc1 [F19, 1-(1-(2-Methoxyphenyl)-1H-pyrazol-5-yl)-3-(4-(1-(4-(perfluoroethoxy)phenyl)-1H-1,2,4-triazol-3-yl)phenyl)urea]",50 to 100%,50 to 100%,0 to 80%,A (80-100)
